{"source": "patent US9371364B2", "about": "“Dual-targeted therapeutic peptide for nasopharyngeal carcinoma, nanoparticles carrying same and uses thereof” (HUAZHONG UNIVERSITY OF SCIENCE AND TECHNOLOGY, priority 2012, dated 2016)", "system": "nasopharyngeal carcinoma cells (5-8 F, SUNE-1, HONE-1) versus other cancer cells", "experiment": "Octa-FNP fluorescent nano-probe screening of tumor cells (laser confocal imaging, FACS)", "assay_type": "cell-based", "settings": "3 h incubation, FIG. 1", "protocol": "In this example, a peptide octavalent fluorescent nanoprobe based on tetramer far-red fluorescent protein was prepared by using a method for constructing a peptide fluorescent probe having a multivalent effect and a nanosized effect invented in the previous research. The probe was used to detect and screen different types of tumor cell lines, in order to screen and identify the tumor-targeting property of the peptide, […] (SEQ ID NO: 3).", "data": [{"sequence": "LTVSPWYLTVSPWY (a targeted therapeutic peptide for nasopharyngeal carcinoma)", "values": [{"measurement": "induction of tumor cell death", "result": "can effectively induce the death of tumor cells"}, {"measurement": "tumor-targeting property of the peptide", "result": "excellent tumor-targeting property to nasopharyngeal carcinoma cells"}]}]}
